Measurements taken from article PMC8217011, “Natural brominated phenoxyphenols kill persistent and biofilm-incorporated cells of MRSA and other pathogenic bacteria” (Applied Microbiology and Biotechnology, 2020).
Converted amounts (≈) assume the structure as drawn. “And” between values parts separate entries of the source, which are not always exact repeats. Equal values may be shown once.

What was measured:
[1] = tested on: Enterobacter cloacae isolate 3678; assay: MIC determination (broth microdilution in LB medium); format: cell-based
Description: (§1) The minimal inhibitory concentration (MIC) has been determined according to the CSLI guidelines (CLSI [2012]). Briefly, in a sterile polystyrene U-bottom 96-well plate, a 2-fold serial dilution ranging from 100 to 0.78 μM of testing compounds has been prepared in 50 μL MHB. A freshly inoculated S. aureus culture was grown until OD600 nm of approx. 0.6 and diluted to 10^6 CFU/mL in MHB. Finally, 50 μL of the latter cell suspension was added to each well and then incubated statically for 18–24 h at 37 °C. MIC was determined using BacTiterGlo ATP assay (Promega, Madison, WI, USA) and Tecan Infinite F200 Pro (Tecan, Männedorf, Switzerland). Moxifloxacin and DMSO were used as positive and negative control, respectively. Sublethal concentrations of colistin (0.1 μM) were used in some experiments to increase the permeability of the gram-negative cell envelope for compound testing. For E. cloacae, a broth microdilution assay was performed using a serial 2-fold dilution in 96-well flat-bottomed plates (Falcon, BD Bioscience, Heidelberg) of both PPs in broth LB medium (Roth, Karlsruhe) at a concentration range of 50–0.024 μM.

[2] = tested on: S. aureus mutant M3 (parental strain ATCC 25923); assay: MIC of spontaneously resistant mutant; format: cell-based; details: Staphylococcus aureus, ATCC25923
Description: as §1
(§2) Spontaneous resistant mutants have been generated with 2-bromo-PP and 3-bromo-PP to further investigate the mechanism of antibacterial action and resistance. Since isolation of spontaneous resistant mutants in one step was not successful on solid media containing 2-bromo-PP or 3-bromo-PP (i.e. resistance frequency < 10^−7 at 5-fold MIC), enrichment was done by passaging bacteria daily in liquid media containing increasing sublethal concentrations of PPs. […] Moreover, we observed cross-resistance between PPs since 2-bromo-PP-resistant mutants were also resistant against 3-bromo-PP and vice versa (Fig. 4a; Table 2).

[3] = tested on: S. aureus mutant M5 (parental strain Mu50); assay: MIC of spontaneously resistant mutant; format: cell-based; details: Staphylococcus aureus
Description: as §1, §2

[4] = tested on: S. aureus mutant M6 (parental strain Mu50); assay: MIC of spontaneously resistant mutant; format: cell-based; details: Staphylococcus aureus
Description: as §1, §2

CLS-54 (CLS 300227) = assay: Cytotoxicity assay (Resazurin); format: cell-based; details: Homo sapiens, 48 h, 2 days
Description: (§3) Human cell lines were grown in their respective growth medium. Cells have been counted using a haemocytometer, and cell density was adjusted to 10^6 cells/mL. A 2-fold serial dilution was prepared in 96-well U-bottom plates, and cells were sown into the wells to a final density of […]. After 2 days at 37 °C and 5% CO2, 10 μL of a 100 μg/mL Resazurin dye solution was added to each well and was incubated for several hours. The reaction was inactivated with 100 μL of a 10% formalin solution per well. Finally, the fluorescence was quantified in a plate reader with 535-nm excision and 590-nm emission wavelengths.

HEK293 (CLS 300192) = assay: Cytotoxicity assay (Resazurin); format: cell-based; details: Homo sapiens, HEK293, 48 h, 2 days
Description: as §3

HepG2 (CLS 300198) = assay: Cytotoxicity assay (Resazurin); format: cell-based; details: Homo sapiens, HepG2, 48 h, 2 days
Description: as §3

HuH7 (CLS 300156) = assay: Cytotoxicity assay (Resazurin); format: cell-based; details: Homo sapiens, Huh-7, 48 h, 2 days
Description: as §3

MRC-5 (ATCC CCL-171) = assay: Cytotoxicity assay (Resazurin); format: cell-based; details: Homo sapiens, MRC5, 48 h, 2 days
Description: as §3

THP-1 (ATCC TIB-202) = assay: Cytotoxicity assay (Resazurin); format: cell-based; details: Homo sapiens, THP-1, 48 h, 2 days
Description: as §3

[5] = tested on: persisters of P. aeruginosa POA1; assay: Antipersister activity assay (Resazurin); format: cell-based; details: Pseudomonas aeruginosa, 24 h, read-out: MIC against persisters
[6] = tested on: preformed biofilms of MRSA Mu50; assay: Antibiofilm activity assay, viability by Resazurin reduction; format: cell-based, Staphylococcus aureus; details: preformed 24 h biofilms
Description: Sterile flat-bottom 96-well polystyrene plates were used for the assay. Some S. aureus colonies were picked from an MHA plate and resuspend in MHB + 10% glucose, and cell density was adjusted to 10^8 cells per mL. One hundred microlitres of cell suspension was added to each well, and the plate was incubated statically for 24 h to induce growth and maturation of biofilms. After 24 h, the wells were washed three times with PBS to remove planktonic cells, and compounds were added to the wells to check for antibiofilm activity. To check for inhibition of biofilm formation, compounds were added immediately after adding of cells to the wells in sublethal concentrations. Lysostaphin, moxifloxacin and DMSO served as positive and negative controls, respectively.
Viability was measured as described above utilizing the Resazurin reduction assay. Biofilm formation was measured using crystal violet staining as described elsewhere (Christensen et al. [1985]; Stepanovic et al. [2007]). Briefly, biofilms were washed three times with PBS and allowed to air dry before 0.1% (v/v) crystal violet solution (Waldeck GmbH & Co., Münster, Germany) was added to each well. The biofilms were stained for 15 min at room temperature (RT). […] Finally, 100 μL was transferred to a fresh 96-well plate to measure absorption at 600 nm with a plate reader.

[7] = tested on: actively replicating MRSA strain Mu50; assay: Killing kinetics, actively replicating cells (CFU plating); format: cell-based, Staphylococcus aureus; details: MHB, start 10^6 CFU/mL; for time of first antibacterial effects: 4× MIC; for time until viability reached the detection limit: PPs at 4× MIC, moxifloxacin 20 μM, detection limit 10^2 CFU/mL
Description: S. aureus cells were freshly incubated in MHB until an OD600 nm of approx. 0.6 was reached. Next, the cells were diluted to 10^6 CFU/mL in 5 mL MHB. […] At certain time points (0, 0.5, 1, 3, 6, 8, 24 h), 100 μL was removed from the culture, diluted and plated onto MHA plates. After 24-h incubation, colonies were counted and viability (expressed as colony-forming units per mL (CFU/mL)) was calculated considering the dilution factor.

[8] = tested on: stationary phase-induced persistent cells of MRSA strain Mu50; assay: Persister killing kinetics (CFU plating); format: cell-based, Staphylococcus aureus; details: start 10^8 CFU/mL
Description: For persister killing kinetics, cells were grown overnight until a density of OD600 nm > 5.0 was reached and then washed three times with PBS. Next, cell density was adjusted to 10^8 CFU/mL in 5 mL PBS. […] Analysis was performed as described above.

human PBMNCs = tested on: human PBMNCs; parameters: method as in Mayer et al. [2019]; details: ref Mayer et al. [2019]; cited from earlier work

Compound | MIC90 [1] | MIC90 [2] | MIC90 [3] | MIC90 [4] | IC50 (CLS-54 (CLS 300227)) [µM] | IC50 (HEK293 (CLS 300192)) [µM] | IC50 (HepG2 (CLS 300198)) [µM] | IC50 (HuH7 (CLS 300156)) [µM] | IC50 (MRC-5 (ATCC CCL-171)) [µM] | IC50 (THP-1 (ATCC TIB-202)) [µM] | MIC [5] [µM] | concentration inhibiting viability of cells in biofilms (maximal effect) [6] [µM] | time of first antibacterial effects [7] [h] | time until viability reached the detection limit [7] [h] | time until viability reduced to the detection limit ([8]; PPs at 4× MIC, NH125 10 μM, detection limit 10^2 CFU/mL) [h] | cytotoxicity (human PBMNCs) | decrease of viability of persistent cells after 24 h ([8]; 3-bromo-PP at 4× MIC, moxifloxacin control, 24 h) [logs]
Oc1c(Br)cc(Br)cc1Oc1ccc(Br)cc1Br [2-bromo-PP, 4,6-dibromo-2-(2′,4′-dibromophenoxy)phenol] | 12.5 µM and 6.27 µg/mL | 0.78 µM and 0.39 µg/mL | 1.56 µM and 0.78 µg/mL | 0.78 µM and 0.39 µg/mL | > 100 | 12.5 | 50 | > 100 | > 100 | 6.25 | 12.5 (≈ 6.27 µg/mL) | 100 | 3 | 8 | 8 | low cytotoxicity | 
Oc1c(Br)cc(Br)c(Br)c1Oc1ccc(Br)cc1Br [3-bromo-PP, 3,4,6-tribromo-2-(2′,4′-dibromophenoxy)phenol] | 12.5 µM and 7.26 µg/mL | 6.25 µM and 3.63 µg/mL | 3.12 µM and 1.81 µg/mL | 3.12 µM and 1.81 µg/mL | > 100 | 3.12 | 25 | > 100 | 100 | 50 | 50 (≈ 29 µg/mL) | 12.5 | 6 | 8 |  | low cytotoxicity | 2
